“Also recorded” adds a separate entry of the source.
Key:
[1] = Quantitative 19F-NMR of compound persistence in tumor, blood and liver; assay type: in vivo, mice
Procedure: To validate ^19F-NMR as a viable detection approach, the persistence of pCF3-MMe in tumors was analyzed. KPC1242 engrafted mice were administered 1 mg/mouse pCF3-MMe starting 12 days after implantation. […] We next designed a quantitative NMR approach to measure the in vivo persistence of pCF3-MMe. First, serial dilutions of known concentrations of pCF3-MMe were prepared, and the intensity of the NMR peaks at a set scan number (n=64) was used to create a standard curve. Next, a one-phase decay least-squares fit equation was generated to calculate the amount of pCF3-MMe at each time point using the standardized scan number.
Cells (1×10^7 cells/10 cm dish) were allowed to adhere overnight and then treated with varying concentrations of mitochondria-targeted compounds. Compounds were extracted using multiple methods and optimized for detection and quantification: A) Cells or tumors were placed in a dry ice ethanol bath followed by 80% v/v MeOH in water. Cells were placed on a dry ice ethanol bath on an orbital shaker for 20 minutes, and then cells were collected and centrifuged at 10,000×g; B) Post-treatment cells were lifted with TrypLE (Gibco, Cat #11558856) and centrifuged, then compound was extracted from the cells or tumors with 9:1 CHCl3:H2O, CH2Cl2, or 1:1 MeCN:H2O. Following extraction, solvents were evaporated using a Biotage V-10 Touch (Uppsala, Sweden), and before NMR acquisition, samples were resuspended in an equal volume of DMSO-d6.
^19F 1D-NMR spectra were collected on a Bruker Avance-III 500 MHz NMR spectrometer equipped with a 1H&^19F/13C/15N-TCI cryoprobe. […] To evaluate pCF3-MMe concentrations in biological samples, a standard curve was generated using pCF3-MMe concentrations of 0.25, 0.50, 0.75, 1.0, 1.25, and 1.5 mg/mL, and the resulting peak intensities were analyzed by linear regression. […]
All animal studies were approved by the Institutional Animal Care and Use Committees at the Medical College of Wisconsin. […] Tumors were excised, and volume (length×width×depth=mm^3) was measured post-mortem using calipers. […]

[2] = tested on: KPC1242 murine pancreatic cancer; test: Tumor growth in KPC1242 engrafted mice; assay type: in vivo; settings: 1 mg pCF3-MMe, 5 days on and 2 days off, from 17 days after engraftment
Procedure: FIGS. 6A-6I show pCF3-MMe inhibits tumor growth with enhanced biosafety relative to MMe. C57BL/6J mice were treated with 1 mg MMe, 1 mg pCF3-MMe, 1 mg MMe, 250 μg MMe, 100 μg MMe, 50 μg MMe, or 25 μg MMe for 6 hours (FIG. 6A) or 5 days (FIG. 6D). Kaplan-Meier survival curve of mice treated for 6 hours (FIG. 6B) or 5 days (FIG. 5E), n=3-5. Numbers of mice surviving over time after a single injection (FIG. 6C) or 5 repeated doses (FIG. 6F). Significance was determined using a Mantel-Cox test (*, p<0.05; **, p<0.01). KPC1242 murine pancreatic cancer engrafted mice were treated with 1 mg pCF3-MMe or vehicle 5 days on and 2 days off (FIG. 6G). […] Tumor volume was measured ex vivo from vehicle and pCF3-MMe-treated mice (FIG. 6I). […] Significant differences were determined by Student's t-test (*, p<0.05).
Given the strong safety shown from a single injection, further studies were conducted to determine if mice tolerated repeated injection using our published treatment schedule by injecting non-tumor-bearing mice daily for 5 consecutive days with doses ranging from as little as 25 μg/mouse to as much as 1 mg/mouse 20 (FIG. 6D). […] Taken together, trifluoromethylation of TPP^+ improves the reproducible detection, quantitative measurement, and safety profile of TPP^+-conjugated compounds while retaining potent anti-tumor effects in vivo. […]

[3] = tested on: pancreatic, breast, and colon cancers; settings: cited from earlier work

SMILES | detection in the blood and liver ([1]; 2 hours after injection, 1 mg) | detection in the blood and liver ([1]; 6 hours after injection) | levels within the tumors ([1]; 24 hours after injection, 1 mg/mouse) | tumor size and volume [2] | efficacy compared to metformin [3]
N=C(N)NC(=N)NCCCCCCCCCC[P+](c1ccc(C(F)(F)F)cc1)(c1ccc(C(F)(F)F)cc1)c1ccc(C(F)(F)F)cc1.[Br-] [pCF3-MMe, (10-(3-carbamimidoylguanidino)decyl)tris(4-(trifluoromethyl)phenyl)phosphonium bromide] | undetectable; also recorded: not detected | barely detectable above the signal-to-noise ratio | measurable levels | significantly decreased tumor size and volume | 
N=C(N)NC(=N)NCCCCCCCCCC[P+](c1ccccc1)(c1ccccc1)c1ccccc1.[Br-] [MMe, 10-[(carbamimidamidomethanimidoyl)amino]decyl-triphenylphosphonium bromide, reference compound] |  |  |  |  | 100-1000 fold

Reference: US20250042925A1, “Improved Compositions and Methods for Targeting Mitochondria in Cancer Cells” (The Medical College of Wisconsin, Inc., priority 2021, published 2025)
